{"source": "patent US12460263B2", "about": "“Genetic variants for diagnosis of Alzheimer's disease” (The Hong Kong University of Science and Technology, priority 2019, dated 2025)", "key": {"plasma sST2 protein": {"test_system": "plasma sST2 protein", "assay": "Association analysis of plasma sST2 protein level (ELISA) and medication in Hong Kong female AD patients", "format": "in vivo, human", "details": "female AD patients taking trazodone (n=15) vs not taking (n=149), Hong Kong Chinese AD cohort, linear regression adjusted for age and population structure, ***P<0.001", "source_text": "Subject Recruitment for the Hong Kong Chinese AD Cohort: A cohort of Hong Kong Chinese was recruited from individuals who visited the Specialist Outpatient Department of the Prince of Wales Hospital, the Chinese University of Hong Kong. A total of 427 subjects were recruited: 233 with AD and 194 normal controls (NCs). All subjects were ≥60 years old. The clinical diagnosis of AD was established based on the American Psychiatric Association's Diagnostic and Statistical Manual of Mental Disorders, Fifth Edition (DSM-5). All subjects were given medical history assessment, cognitive and functional assessment through the Montreal Cognitive Assessment (MoCA) test, and neuroimaging assessment by MRI. Each individual's data, including age, sex, education, medical history, and cardiovascular disease history, were recorded. Individuals with any significant neurological disease or psychiatric disorder were excluded. The plasma of subjects was collected and stored at −80° C. as aliquots until use. […] Absolute blood cell count was determined by complete blood count (CBC) at the Prince of Wales Hospital. […]\nDetection of Soluble ST2 Protein by ELISA: Human plasma and CSF soluble ST2 (sST2) protein levels were measured using the Human ST2/IL-33 R Quantikine ELISA Kit (DST200). […]"}, "[1]": {"assay": "Association analysis of cognitive performance (MoCA score) and medication history in female AD patients", "format": "in vivo, human", "details": "association with medication history, P=0.0202", "source_text": "Subject Recruitment for the Hong Kong Chinese AD Cohort: A cohort of Hong Kong Chinese was recruited from individuals who visited the Specialist Outpatient Department of the Prince of Wales Hospital, the Chinese University of Hong Kong. A total of 427 subjects were recruited: 233 with AD and 194 normal controls (NCs). All subjects were ≥60 years old. The clinical diagnosis of AD was established based on the American Psychiatric Association's Diagnostic and Statistical Manual of Mental Disorders, Fifth Edition (DSM-5). All subjects were given medical history assessment, cognitive and functional assessment through the Montreal Cognitive Assessment (MoCA) test, and neuroimaging assessment by MRI. Each individual's data, including age, sex, education, medical history, and cardiovascular disease history, were recorded. Individuals with any significant neurological disease or psychiatric disorder were excluded. The plasma of subjects was collected and stored at −80° C. as aliquots until use. This study was approved by the Prince of Wales Hospital, the Chinese University of Hong Kong, and the Hong Kong University of Science and Technology. All participants provided written informed consent for both study enrollment and sample collection. Absolute blood cell count was determined by complete blood count (CBC) at the Prince of Wales Hospital. […]"}, "serum sST2": {"test_system": "serum sST2", "assay": "Trazodone treatment of mice, serum sST2 level by ELISA", "format": "in vivo, mouse", "details": "18 mo", "experimental": "Trazodone treatment of mice: Mice were treated with Trazodone or vehicle control either by intraperitoneal (IP) injection or oral administration. For IP injection, mice were daily injected with 50 mg/kg Trazodone or vehicle (saline). For oral administration, mice were daily fed with 100 mg/kg Trazodone or vehicle (water). After the 2 days, 4 days, 7 days or 14 days of treatment, mouse blood was collected by intracardial bleed at time of sacrifice. The blood without anticoagulants was incubated at room temperature for 2 h and then centrifuged at 2,000×g for 20 min. The serum sST2 level was measured using the Mouse ST2/IL-33 R Quantikine ELISA Kit (MST200, R&D)."}}, "note": "“Also recorded” adds a separate entry of the source.", "data": [{"smiles": "O=c1n(CCCN2CCN(c3cccc(Cl)c3)CC2)nc2ccccn12", "note": "[Trazodone, trazodone]", "values": [{"measurement": "plasma sST2 level", "setting": "plasma sST2 protein", "result": "decreased plasma sST2 level"}, {"measurement": "plasma sST2 level", "setting": "plasma sST2 protein; listed as trazodone", "result": "effective agent to lower plasma sST2 level"}, {"measurement": "cognitive performance (MoCA score)", "setting": "[1]", "result": "altered cognitive performance"}, {"measurement": "serum sST2 level", "setting": "serum sST2; female APP/PS1 mice, daily 100 mg/kg oral for 7 or 14 days vs vehicle, n=5/group, 100 mg/kg", "result": "reduction of serum sST2 level; also recorded: down-regulates the serum sST2 level"}, {"measurement": "serum sST2 level", "setting": "serum sST2; female wildtype mice, daily 50 mg/kg IP or 100 mg/kg oral for 2 or 4 days vs vehicle, n=2/group", "result": "reduction of serum sST2 level; also recorded: down-regulates the serum sST2 level"}]}]}
